Data taken from patent publication US7749711B2, “Methods of assessing endothelial dysfunction using acute transient responses following fat administration” (priority 2003, dated 2010).

System: patients with documented CAD
Assay: Plasma LDL levels in CAD patients on simvastatin therapy
Type: in vivo, human
Conditions: simvastatin 40 mg/day, after 4 months on therapy, 13 CAD patients, data not shown
Description: For all studies, patients were recruited and screened for coronary artery disease (CAD) according to the following criteria.
Study Population: Human subjects with active vascular disease were recruited for this aspect of the study. They were screened by a history and physical exam, measurements of lipid profile and routine blood chemistries to include for example, CBC, TSH, free T4, ALT, AST, CPK, CRP, BUN, creatinine, glucose, hemoglobin A1c (if diabetic), urinalysis for protein and glucose. First preference was given to subjects with coronary artery disease. Exclusions included the use of lipid lowering or high dose angiotensin II—altering (or blocking) drugs within three months of the study. For the purposes of the following example, because of the limitations in finding subjects with coronary artery disease that are not on lipid lowering drugs or other vascular active drugs, subjects were also accepted with high coronary disease risk ratings as determined by Framingham Risk Assessment including both hard and soft risk predictors. […]
All lipid, lipoprotein, and apolipoprotein measurements were performed in the Emory Lipid Research Laboratory, a participant in the NHLBI/CDC Lipid Standardization Program. MDA proteins were measured in the Emory Lipid Research Laboratory using a commercially available kit. […]

CCC(C)(C)C(=O)O[C@H]1C[C@@H](C)C=C2C=C[C@H](C)[C@H](CC[C@@H]3C[C@@H](O)CC(=O)O3)[C@H]21 [simvastatin]
LDL levels reduced by an average of: 32.1%
